# From patent US5523223A, “Ketoester reductase for conversion of keto acid esters to optically active hydroxy acid esters” (priority 1992, dated 1996)
# “And” between values parts separate entries of the source, which are not always exact repeats. Identical values can stand only once. “Also recorded” adds a separate entry of the source. Like-named read-outs stand apart in the source and are kept apart here.
# Columns and labels:
# [1] = test system: KERed from C. parapsilosis; test: Inhibition study of the KERed (influence of metal cations and reagents); format: biochemical, Candida parapsilosis
# From the text: (§1) For the following investigation, partially purified enzyme (after Q-sepharose chromatography, 67-times enrichment) was used. […]
# 5-oxohexanoic acid ethyl ester
# TEA-NaOH-buffer, 0.1 M; pH 7.9
# The influence of various metal cations and reagents upon the enzymatic activity was investigated in tests in which the test preparation described under example 3.B was used.
# [2] = test system: KERed from C. parapsilosis; test: Substrate spectrum of the KERed; format: biochemical, Candida parapsilosis; settings: for Rel. Activity: substrate 8 mM, activity with 5-oxo-hexanoic acid ethyl ester = 100%, NADH 0.2 mM, pH 7.9; for Acceptance as substrate by the KERed (in words): reduction with NADH
# Protocol: as §1
# 5-oxohexanoic acid ethyl ester […]
# Corresponding to example 3.B, instead of 5-oxohexanoic acid ethyl ester a series of aromatic and aliphatic ketoesters, ketoacids, ketones, diketones and aldehydes were investigated as to whether they could be reduced enzymatically. For this the compounds were added always in 8 mM final concentration. […] The activity with 5-oxo-hexanoic acid ethyl ester was arbitrarily selected as 100%.
# [3] = test system: KERed from Candida parapsilosis; test: Kinetic characterization of the KERed; format: biochemical
# [4] = compound 0.1 mM, 35 mM 5-oxohexanoic acid ethyl ester, 0.2 mM NADH, pH 7.9
# [5] = compound 1.0 mM, 35 mM 5-oxohexanoic acid ethyl ester, 0.2 mM NADH, pH 7.9
# [6] = summary statements of the inhibition study
# [7] = referred to 2-butanone, partially purified enzyme
compound,measurement,setting,value
[Co+2] [Co^2+],Residual Activity,[1]; [4],38%
same,Residual Activity,[1]; [5],12%
same,Influence on KERed activity (in words),[1]; [6],Rapid deactivation
O=CC1CCCCC1,Rel. Activity,[2],29%
CC1CCCCC1=O (stereo not shown),Rel. Activity,[2],12%
CC(=O)C(C)Cl (stereo not shown) [drawing 34],Rel. Activity,[2],105%
[Pb+2] [Pb^2+],Residual Activity,[1]; [4],0%
same,Residual Activity,[1]; [5],0%
same,Influence on KERed activity (in words),[1]; [6],Rapid deactivation
O=C1Nc2ccccc2C1=O,Rel. Activity,[2],0%
[Zn+2] [Zn^2+],Residual Activity,[1]; [4],24%
same,Residual Activity,[1]; [5],0%
CCC(=O)CC(=O)OC,Rel. Activity,[2],18%
CC(=O)CCC(=O)O [drawing 6],Rel. Activity,[2],0%
[Ca+2] [Ca^2+],Residual Activity,[1]; [4],78%
same,Residual Activity,[1]; [5],68%
CC(C)C=O [isobutyraldehyde],Acceptance as substrate by the KERed (in words),[2],acceptable as substrates
CCCCC(C)=O [2-hexanone],Km,[3]; partially purified enzyme,54 µM
same,Vmax,[3]; [7],53%
COCC(C)=O [drawing 35],Rel. Activity,[2],53%
NC(=O)C1=CN([C@@H]2O[C@H](COP(=O)(O)OP(=O)(O)OC[C@H]3O[C@@H](n4cnc5c(N)ncnc54)[C@H](OP(=O)(O)O)[C@@H]3O)[C@@H](O)[C@H]2O)C=CC1 [NADPH],Vmax,[3]; [7],No Reaction
CC=O [drawing 46],Rel. Activity,[2],150%
CC(=O)c1ccc(Br)cc1 [4-bromoacetophenone],Acceptance as substrate by the KERed (in words),[2],acceptable as substrates
CC(=O)CCC(C)=O,Rel. Activity,[2],46%
CCC(C)=O [2-Butanone],Km,[3]; partially purified enzyme,1480 µM
same,Vmax of the reference substrate,[3]; partially purified enzyme,6 U mg
same,Vmax,[3]; [7],100%
same,Acceptance as substrate by the KERed (in words),[2],acceptable as substrates
CCCCCC(=O)CC [3-octanone],Km,[3]; partially purified enzyme,11200 µM
same,Vmax,[3]; [7],12%
Triton X-100,Residual Activity,[1]; Triton X-100 0.1%,100%
CCC=O [drawing 47],Rel. Activity,[2],127%
CCCC(=O)CC [drawing 43],Rel. Activity,[2],4%
"CC(=O)CC(C)=O [2,4-pentanedione]",Acceptance as substrate by the KERed (in words),[2],acceptable as substrates
CCC(=O)c1ccccc1 [propiophenone],Acceptance as substrate by the KERed (in words),[2],acceptable as substrates
CC(=O)C=O [Methylglyoxal],Residual Activity,[1]; [4],100%
same,Residual Activity,[1]; [5],34%
CCCCCCC(C)=O [2-octanone],Km,[3]; partially purified enzyme,324 µM
same,Vmax,[3]; [7],62%
same,Acceptance as substrate by the KERed (in words),[2],acceptable as substrates
CO [Methanol],Vmax,[3]; [7],No Reaction
CC(=O)CC(=O)OC(C)(C)C [drawing 5],Rel. Activity,[2],137%
CCOC(=O)CC(=O)C(F)(F)F [Ethyl 4-trifluor-3-oxo-butanoate],Km,[3]; partially purified enzyme,2000 µM
same,Vmax,[3]; [7],11%
[Mg+2] [Mg^2+],Residual Activity,[1]; [4],91%
same,Residual Activity,[1]; [5],82%
O=C(O)CN(CCN(CC(=O)O)CC(=O)O)CC(=O)O [EDTA],Influence on KERed activity (in words),[1],practically not inhibited
same,Residual Activity,[1],100% and 80%
CCCC(C)=O [2-pentanone],Km,[3]; partially purified enzyme,141 µM
same,Vmax,[3]; [7],62%
same,Acceptance as substrate by the KERed (in words),[2],acceptable as substrates
CC(=O)c1ccccc1 [drawing 26],Rel. Activity,[2],34%
COC(OC)C(C)=O [Pyruvaldehyde-Dimethyl-acetal],Km,[3]; partially purified enzyme,189 µM
same,Vmax,[3]; [7],24%
CC(=O)C(C)C,Rel. Activity,[2],28%
CCCCCCCC(C)=O [2-nonanone],Km,[3]; partially purified enzyme,314 µM
same,Vmax,[3]; [7],45%
same,Ki,"[3]; substrate inhibition observed, read-out: Kis (substrate inhibition)",24.9 mM
CC(=O)c1ccccc1Cl,Rel. Activity,[2],0%
CCC(=O)c1ccccc1 [drawing 31],Rel. Activity,[2],0%
CCOC(=O)C1CCCCC1=O (stereo not shown),Rel. Activity,[2],16%
CCCO [1-propanol],Km,[3]; partially purified enzyme,3800 µM
same,Vmax,[3]; [7],47%
CC(C)C=O [drawing 48],Rel. Activity,[2],178%
COC(OC)C(C)=O [drawing 44],Rel. Activity,[2],118%
CC(=O)CC(=O)OC(C)(C)C [Tert.-Butyl 3-oxo-butanoate],Km,[3]; partially purified enzyme,356 µM
same,Vmax,[3]; [7],71%
CCOC(=O)CC(=O)CC [Ethyl 3-oxopentanoate],Km,[3]; partially purified enzyme,6900 µM
same,Vmax,[3]; [7],17%
CC=O [Acetaldehyde],Km,[3]; partially purified enzyme,85 µM
same,Vmax,[3]; [7],129%
same,Acceptance as substrate by the KERed (in words),[2],acceptable as substrates
c1cnc2c(c1)ccc1cccnc12 [o-Phenanthroline],Residual Activity,[1]; [4],26%
same,Influence on KERed activity (in words),[1]; [6],relatively strongly inhibited; also recorded: Strong inhibition
CC(=O)CC(C)=O [drawing 18],Rel. Activity,[2],15%
COCC(C)=O [methoxy-2-propanone],Acceptance as substrate by the KERed (in words),[2],acceptable as substrates
"O[C@@H](CS)[C@@H](O)CS (racemic) [1,4-Dithiothreitol]",Residual Activity,[1]; [4],100%
same,Residual Activity,[1]; [5],100%
same,Influence on KERed activity (in words),[1]; [6],Stabilization
CC(C)=O [Acetone],Km,[3],1060 µM
same,Vmax,[3]; [7],97%
CCOC(=O)CC(=O)c1ccccc1,Rel. Activity,[2],0%
CC(=O)c1cccc(Cl)c1 [3-chloro-aceto-phenone],Km,[3]; partially purified enzyme,15 µM
same,Vmax,[3]; [7],32%
same,Acceptance as substrate by the KERed (in words),[2],acceptable as substrates
O=C1CCCC(=O)C1,Rel. Activity,[2],0%
"c1ccc(-c2ccccn2)nc1 [2,2'-bipyridyl]",Residual Activity,"[1]; 2,2'-bipyridyl 0.05 mM",52%
same,Residual Activity,"[1]; 2,2'-bipyridyl 0.5 mM",23%
same,Influence on KERed activity (in words),[1]; [6],Strong inhibition
CCCCCC(C)=O [2-heptanone],Km,[3]; partially purified enzyme,97 µM
same,Vmax,[3]; [7],58%
CCOC(=O)CC(=O)CCl [Ethyl 4-chlor-3-oxo-butanoate],Km,[3]; partially purified enzyme,3560 µM
same,Vmax,[3]; [7],10%
[Sn+2] [Sn^2+],Residual Activity,[1]; [4],73%
same,Residual Activity,[1]; [5],0%
same,Influence on KERed activity (in words),[1]; [6],Rapid deactivation
COC(CC(C)=O)OC,Rel. Activity,[2],14%
COC(=O)CC(C)=O,Rel. Activity,[2],67%
CCCC(=O)CC(=O)OCC [drawing 14],Rel. Activity,[2],51%
NC(=O)C1=CN([C@@H]2O[C@H](COP(=O)(O)OP(=O)(O)OC[C@H]3O[C@@H](n4cnc5c(N)ncnc54)[C@H](O)[C@@H]3O)[C@@H](O)[C@H]2O)C=CC1 [NADH],Km,[3]; partially purified enzyme,38 µM
CC(=O)C(Cl)Cl [drawing 33],Rel. Activity,[2],60%
CCOC(=O)CC(=O)C(F)(F)F [drawing 10],Rel. Activity,[2],21%
CCC=O [propionaldehyde],Acceptance as substrate by the KERed (in words),[2],acceptable as substrates
CCCC(=O)CCC [4-heptanone],Km,[3]; partially purified enzyme,5300 µM
same,Vmax,[3]; [7],9%
CCOC(=O)CC(=O)CC [drawing 13],Rel. Activity,[2],32%
CC(=O)c1ccccc1 [Acetophenone],Km,[3]; partially purified enzyme,49 µM
same,Vmax,[3]; [7],22%
same,Acceptance as substrate by the KERed (in words),[2],acceptable as substrates
CC(=O)c1ccc(F)cc1 [4-fluoroacetophenone],Acceptance as substrate by the KERed (in words),[2],acceptable as substrates
CCCC(C)=O [drawing 39],Rel. Activity,[2],40%
CCOC(=O)CCC(C)=O [drawing 7],Rel. Activity,[2],76%
CCCCCCCCC(C)=O [2-decanone],Km,[3]; partially purified enzyme,3960 µM
same,Vmax,[3]; [7],20%
CCOC(=O)CC(=O)C(C)C,Rel. Activity,[2],24%
CCCC(=O)CC [3-hexanone],Km,[3]; partially purified enzyme,840 µM
same,Vmax,[3]; [7],10%
CCC(=O)CC(C)=O [drawing 19],Rel. Activity,[2],46%
CC(=O)CCCC(=O)O,Rel. Activity,[2],0%
CC(=O)c1ccc(Br)cc1 [drawing 29],Rel. Activity,[2],40%
CC[C@H](C)O [(S)-2-butanol],Km,[3],600 µM
same,Vmax,[3],210%
CCCCC(=O)CC [3-heptanone],Km,[3]; partially purified enzyme,5600 µM
same,Vmax,[3]; [7],11%
CC(=O)C(C)(C)O,Rel. Activity,[2],0%
CC(=O)c1ccc(Cl)cc1 [4-chloro-acetophenone],Km,[3]; partially purified enzyme,10 µM
same,Vmax,[3]; [7],19%
CCOC(=O)CC(=O)CCl [drawing 11],Rel. Activity,[2],92%
CCCCCCC(C)=O [drawing 40],Rel. Activity,[2],54%
CCC(=O)C(C)C [2-methyl-3-pentanone],Acceptance as substrate by the KERed (in words),[2],acceptable as substrates
CCCCCC(=O)CC [drawing 41],Rel. Activity,[2],33%
CCC(=O)C(C)C [drawing 37],Rel. Activity,[2],51%
CCCCO [1-butanol],Km,[3]; partially purified enzyme,2900 µM
same,Vmax,[3]; [7],47%
CC(=O)C(C)Cl (stereo not shown) [3-chloro-2-butanone],Km,[3]; partially purified enzyme,442 µM
same,Vmax,[3]; [7],50%
same,Acceptance as substrate by the KERed (in words),[2],acceptable as substrates
"CCC(=O)CC(C)=O [2,4-hexanedione]",Acceptance as substrate by the KERed (in words),[2],acceptable as substrates
CCOC(=O)CC(C)=O [drawing 4],Rel. Activity,[2],61%
CC(=O)c1ccc(F)cc1 [drawing 30],Rel. Activity,[2],40%
CC(C)O [2-propanol],Km,[3]; partially purified enzyme,2210 µM
same,Vmax,[3]; [7],183%
CCOC(=O)CC(C)=O [drawing 3],Rel. Activity,[2],76%
"CC(=O)C(Cl)Cl [1,1-Dichloroacetone]",Km,[3]; partially purified enzyme,176 µM
same,Vmax,[3]; [7],45%
same,Acceptance as substrate by the KERed (in words),[2],acceptable as substrates
CCOC(=O)CCCC(C)=O,Rel. Activity,[2],100%
CC1CCC(=O)CC1,Rel. Activity,[2],40%
CCC(C)=O [drawing 38],Rel. Activity,[2],48%
CCOC(=O)C(C)C(C)=O (stereo not shown),Rel. Activity,[2],70%
CC(=O)c1cccc(Cl)c1 [drawing 28],Rel. Activity,[2],35%
